Laboratory results reported in PMC11879040, “Advancing systemic toxicity risk assessment: Evaluation of a NAM-based toolbox approach” (Toxicological Sciences, 2024).
Like-named read-outs stand apart in the source and are kept apart here. Peptide text beside a SMILES is read from it.

Experiments:
[1] = system: Potassium Voltage-Gated Channel Kv non-selective, KCNQ1 (r); experiment: IPP KCNQ1 binding (antagonist radioligand); parameters: species or system rat; settings: control α-dendrotoxin
[2] = system: Gamma-aminobutyric acid receptor subunit alpha-1 BZD site, GABRA1A (r); type: binding, rat; settings: control diazepam
[3] = system: Sodium channel protein type 5 subunit alpha (site 2), SCN5A (r); type: binding, rat; settings: control veratridine
[4] = molecular target: T1, Adenosine receptor A2a, ADORA2A (h) (Homo sapiens, UniProt P29274); experiment: IPP ADORA2A binding (agonist radioligand); settings: control NECA
T1 construct: purchased Eurofins Cerep (SafetyScreen44-based IPP panel)

[5] = molecular target: T2, Estrogen receptor, ER1 (h) (Homo sapiens, UniProt P03372); experiment: IPP ER1 coactivator recruitment (agonist); type: biochemical; settings: estriol
T2 construct: purchased Eurofins Cerep (SafetyScreen44-based IPP panel)
T2 sequence (P03372 1-595): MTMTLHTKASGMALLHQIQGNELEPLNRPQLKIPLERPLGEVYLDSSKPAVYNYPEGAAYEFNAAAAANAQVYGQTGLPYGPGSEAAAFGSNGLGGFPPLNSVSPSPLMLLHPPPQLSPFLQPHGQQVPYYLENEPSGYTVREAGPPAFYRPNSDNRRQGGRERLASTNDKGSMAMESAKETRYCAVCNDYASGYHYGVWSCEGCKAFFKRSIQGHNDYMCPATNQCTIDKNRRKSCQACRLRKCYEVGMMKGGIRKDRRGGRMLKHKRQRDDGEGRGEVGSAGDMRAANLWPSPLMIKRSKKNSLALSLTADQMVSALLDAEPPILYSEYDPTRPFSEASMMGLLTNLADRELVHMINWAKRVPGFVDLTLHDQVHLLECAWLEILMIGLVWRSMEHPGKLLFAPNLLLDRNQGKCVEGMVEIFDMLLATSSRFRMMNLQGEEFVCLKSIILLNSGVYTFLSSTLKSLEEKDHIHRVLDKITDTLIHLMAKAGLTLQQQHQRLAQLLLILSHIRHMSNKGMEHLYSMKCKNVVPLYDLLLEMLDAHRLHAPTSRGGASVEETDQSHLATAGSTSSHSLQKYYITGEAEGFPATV

[6] = molecular target: T2, Estrogen receptor, ER1 (h); experiment: IPP ER1 coactivator recruitment (antagonist); type: biochemical; settings: estriol
[7] = system: Thyroid hormone receptor alpha, THRA (h); experiment: IPP THRA coactivator recruitment (agonist); type: biochemical, human; settings: agonist, T3
Tubulin (r) = experiment: IPP Tubulin binding; parameters: species or system rat; settings: ligand/control Colchicine
HepG2 cells [8] = experiment: Cell stress panel (CSP), 24 h, 8 concentrations, BIFROST global PoD; type: cell-based; settings: for pod_cell_stress PoD: HepG2, cell stress panel PoD
Experimental: Compounds were tested using the previously developed cell stress panel ([Hatherell et al. 2020]) and the expanded biomarker panel outlined in Middleton et al. HepG2 cells were treated with all compounds for 24 h across 8 concentrations prior to biomarker analysis. The same plate layout and number of replicates (3 biological and 2 technical) were used as previously for each assay within the panel.

HepG2 cells [9] = experiment: High-throughput transcriptomics (HTTr, TempO-Seq), HepG2, 24 h; type: cell-based, human; settings: HepG2; for pod_httr_bifrost PoD: HTTr BIFROST PoD; for podl_path_minbmd PoD: HTTr minimum pathway BMD(L)
Experimental: (§1) HepG2, HepaRG, and MCF7 cells were treated with each compound for 24 h across a dose range of 7 concentrations and lysed using TempO-Seq lysis buffer (BioSpyder Technologies, proprietary kit, see [Middleton et al. 2022] for method details). Sequencing was performed using TempO-Seq (BioClavis) version 2 of the human whole transcriptome panel and analyzed as described previously in Middleton et al.

HepaRG cells = experiment: High-throughput transcriptomics (HTTr, TempO-Seq), HepaRG, 24 h; type: cell-based, human; settings: HepaRG; for pod_httr_bifrost PoD: HTTr BIFROST PoD; for podl_path_minbmd PoD: HTTr minimum pathway BMD(L)
Experimental: as §1

MCF7 cells = experiment: High-throughput transcriptomics (HTTr, TempO-Seq), MCF7, 24 h; type: cell-based, human; settings: MCF-7; for pod_httr_bifrost PoD: HTTr BIFROST PoD; for podl_path_minbmd PoD: HTTr minimum pathway BMD(L)
Experimental: as §1

[10] = system: Glutamate receptor ionotropic NMDA 1 non-selective, GRIN1 (r); settings: control CGS 19755
[11] = molecular target: Potassium voltage-gated channel subfamily H member 2 hERG, KCNH2 (h) (Homo sapiens, UniProt Q12809); settings: [3H] Dofetilide, control Terfenadine
rat = settings: rat, cited from earlier work; for PoD (NOAEL): ref ToxRefDB/Paul-Friedman et al. (2020)/regulatory opinions
[12] = PBK level L2; taken or scaled from references (median where several); ref [6],[7],[10],[19]; cited from earlier work
[13] = molecular target: T3, Pregnane X receptor PXR, NR1I2 (h) (Homo sapiens, UniProt O75469); experiment: IPP PXR coactivator recruitment (agonist); settings: T0901317 for control
T3 sequence (O75469 1-434): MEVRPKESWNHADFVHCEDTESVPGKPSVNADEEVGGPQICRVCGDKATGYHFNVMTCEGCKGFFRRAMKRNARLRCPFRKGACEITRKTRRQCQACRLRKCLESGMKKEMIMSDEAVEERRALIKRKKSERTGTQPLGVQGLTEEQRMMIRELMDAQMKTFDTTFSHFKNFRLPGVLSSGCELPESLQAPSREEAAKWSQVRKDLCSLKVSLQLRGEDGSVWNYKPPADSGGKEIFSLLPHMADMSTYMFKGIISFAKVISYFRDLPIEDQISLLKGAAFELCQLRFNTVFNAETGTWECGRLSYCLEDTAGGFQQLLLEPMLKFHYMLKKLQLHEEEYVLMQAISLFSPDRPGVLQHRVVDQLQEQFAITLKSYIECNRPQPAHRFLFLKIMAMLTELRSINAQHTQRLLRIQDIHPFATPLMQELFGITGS

[14] = molecular target: T3, Pregnane X receptor PXR, NR1I2 (h); experiment: IPP PXR coactivator recruitment (antagonist); settings: ligand T0901317
[15] = cited from earlier work
[16] = PBK level L2; single value or median; ref [2],[4],[6],[7],[8],[10],[11],[15],[18],[27],[34]; cited from earlier work
[17] = Assignment of risk classifications to benchmark chemical-exposure scenarios; settings: for risk: from table S1
[18] = molecular target: Voltage-dependent L-type Ca2+ channel (dihydropyridine site), CACNA1C (r) (Rattus norvegicus, UniProt P22002); type: binding; settings: IPP screening at 10 uM; control nitrendipine
[19] = system: 63 targets with known safety liabilities; experiment: In vitro pharmacological profiling (IPP) panel, screening at 10 or 100 µM and dose response, minimum IC50/AC50; type: biochemical; settings: lowest AC50 across IPP panel (systemic targets); cell_type -; read-out: ipp_lowest_ac50_systemic PoD
[20] = PBK level L2; at the given pH; single value or median; ref [1],[4],[5],[10],[11],[17],[26]; cited from earlier work
[21] = 100 uM, * denotes assay interference (2-Amino-6-chloro-4-nitrophenol, HC Red 3)

T1 sequence (P29274 whole entry): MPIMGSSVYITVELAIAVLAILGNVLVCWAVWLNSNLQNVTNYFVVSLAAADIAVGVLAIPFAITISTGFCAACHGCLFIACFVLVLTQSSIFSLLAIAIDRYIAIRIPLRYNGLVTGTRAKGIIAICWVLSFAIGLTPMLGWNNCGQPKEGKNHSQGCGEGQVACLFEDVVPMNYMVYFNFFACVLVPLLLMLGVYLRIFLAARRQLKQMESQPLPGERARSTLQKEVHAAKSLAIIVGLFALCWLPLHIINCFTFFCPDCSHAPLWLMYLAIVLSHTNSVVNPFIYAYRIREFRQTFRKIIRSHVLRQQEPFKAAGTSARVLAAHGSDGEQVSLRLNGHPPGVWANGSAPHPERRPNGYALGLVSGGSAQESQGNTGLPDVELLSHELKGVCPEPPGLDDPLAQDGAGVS
Potassium voltage-gated channel subfamily H member 2 hERG, KCNH2 (h), sequence (Q12809 whole entry): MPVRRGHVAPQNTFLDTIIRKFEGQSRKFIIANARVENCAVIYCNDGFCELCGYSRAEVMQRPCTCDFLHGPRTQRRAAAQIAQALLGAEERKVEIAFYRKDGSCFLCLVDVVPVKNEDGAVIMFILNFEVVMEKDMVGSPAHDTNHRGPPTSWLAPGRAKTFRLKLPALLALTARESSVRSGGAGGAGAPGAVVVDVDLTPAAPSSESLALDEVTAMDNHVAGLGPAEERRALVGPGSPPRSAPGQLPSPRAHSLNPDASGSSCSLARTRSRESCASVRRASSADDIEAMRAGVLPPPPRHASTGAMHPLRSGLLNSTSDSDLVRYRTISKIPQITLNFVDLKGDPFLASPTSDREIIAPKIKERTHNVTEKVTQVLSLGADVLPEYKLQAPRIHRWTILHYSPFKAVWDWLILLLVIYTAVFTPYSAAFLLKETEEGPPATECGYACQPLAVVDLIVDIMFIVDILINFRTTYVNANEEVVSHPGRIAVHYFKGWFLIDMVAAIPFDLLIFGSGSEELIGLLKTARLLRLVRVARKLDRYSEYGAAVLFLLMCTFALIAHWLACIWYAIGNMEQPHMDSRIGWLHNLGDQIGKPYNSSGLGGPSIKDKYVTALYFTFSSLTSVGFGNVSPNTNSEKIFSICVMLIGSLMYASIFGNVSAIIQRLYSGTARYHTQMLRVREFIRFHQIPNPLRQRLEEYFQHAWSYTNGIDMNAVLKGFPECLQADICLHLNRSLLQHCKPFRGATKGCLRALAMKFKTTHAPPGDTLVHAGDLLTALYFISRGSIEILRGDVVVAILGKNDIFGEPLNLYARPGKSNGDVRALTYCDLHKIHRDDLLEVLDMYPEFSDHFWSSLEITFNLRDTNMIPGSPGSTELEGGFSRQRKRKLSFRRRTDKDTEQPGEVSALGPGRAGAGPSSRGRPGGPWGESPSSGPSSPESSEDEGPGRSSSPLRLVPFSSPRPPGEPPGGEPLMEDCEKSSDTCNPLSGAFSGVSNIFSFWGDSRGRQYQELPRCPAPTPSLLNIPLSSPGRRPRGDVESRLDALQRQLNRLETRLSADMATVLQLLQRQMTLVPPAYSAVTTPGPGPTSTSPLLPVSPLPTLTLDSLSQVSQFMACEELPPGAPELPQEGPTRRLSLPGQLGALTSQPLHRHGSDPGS
Voltage-dependent L-type Ca2+ channel (dihydropyridine site), CACNA1C (r), sequence (P22002 whole entry): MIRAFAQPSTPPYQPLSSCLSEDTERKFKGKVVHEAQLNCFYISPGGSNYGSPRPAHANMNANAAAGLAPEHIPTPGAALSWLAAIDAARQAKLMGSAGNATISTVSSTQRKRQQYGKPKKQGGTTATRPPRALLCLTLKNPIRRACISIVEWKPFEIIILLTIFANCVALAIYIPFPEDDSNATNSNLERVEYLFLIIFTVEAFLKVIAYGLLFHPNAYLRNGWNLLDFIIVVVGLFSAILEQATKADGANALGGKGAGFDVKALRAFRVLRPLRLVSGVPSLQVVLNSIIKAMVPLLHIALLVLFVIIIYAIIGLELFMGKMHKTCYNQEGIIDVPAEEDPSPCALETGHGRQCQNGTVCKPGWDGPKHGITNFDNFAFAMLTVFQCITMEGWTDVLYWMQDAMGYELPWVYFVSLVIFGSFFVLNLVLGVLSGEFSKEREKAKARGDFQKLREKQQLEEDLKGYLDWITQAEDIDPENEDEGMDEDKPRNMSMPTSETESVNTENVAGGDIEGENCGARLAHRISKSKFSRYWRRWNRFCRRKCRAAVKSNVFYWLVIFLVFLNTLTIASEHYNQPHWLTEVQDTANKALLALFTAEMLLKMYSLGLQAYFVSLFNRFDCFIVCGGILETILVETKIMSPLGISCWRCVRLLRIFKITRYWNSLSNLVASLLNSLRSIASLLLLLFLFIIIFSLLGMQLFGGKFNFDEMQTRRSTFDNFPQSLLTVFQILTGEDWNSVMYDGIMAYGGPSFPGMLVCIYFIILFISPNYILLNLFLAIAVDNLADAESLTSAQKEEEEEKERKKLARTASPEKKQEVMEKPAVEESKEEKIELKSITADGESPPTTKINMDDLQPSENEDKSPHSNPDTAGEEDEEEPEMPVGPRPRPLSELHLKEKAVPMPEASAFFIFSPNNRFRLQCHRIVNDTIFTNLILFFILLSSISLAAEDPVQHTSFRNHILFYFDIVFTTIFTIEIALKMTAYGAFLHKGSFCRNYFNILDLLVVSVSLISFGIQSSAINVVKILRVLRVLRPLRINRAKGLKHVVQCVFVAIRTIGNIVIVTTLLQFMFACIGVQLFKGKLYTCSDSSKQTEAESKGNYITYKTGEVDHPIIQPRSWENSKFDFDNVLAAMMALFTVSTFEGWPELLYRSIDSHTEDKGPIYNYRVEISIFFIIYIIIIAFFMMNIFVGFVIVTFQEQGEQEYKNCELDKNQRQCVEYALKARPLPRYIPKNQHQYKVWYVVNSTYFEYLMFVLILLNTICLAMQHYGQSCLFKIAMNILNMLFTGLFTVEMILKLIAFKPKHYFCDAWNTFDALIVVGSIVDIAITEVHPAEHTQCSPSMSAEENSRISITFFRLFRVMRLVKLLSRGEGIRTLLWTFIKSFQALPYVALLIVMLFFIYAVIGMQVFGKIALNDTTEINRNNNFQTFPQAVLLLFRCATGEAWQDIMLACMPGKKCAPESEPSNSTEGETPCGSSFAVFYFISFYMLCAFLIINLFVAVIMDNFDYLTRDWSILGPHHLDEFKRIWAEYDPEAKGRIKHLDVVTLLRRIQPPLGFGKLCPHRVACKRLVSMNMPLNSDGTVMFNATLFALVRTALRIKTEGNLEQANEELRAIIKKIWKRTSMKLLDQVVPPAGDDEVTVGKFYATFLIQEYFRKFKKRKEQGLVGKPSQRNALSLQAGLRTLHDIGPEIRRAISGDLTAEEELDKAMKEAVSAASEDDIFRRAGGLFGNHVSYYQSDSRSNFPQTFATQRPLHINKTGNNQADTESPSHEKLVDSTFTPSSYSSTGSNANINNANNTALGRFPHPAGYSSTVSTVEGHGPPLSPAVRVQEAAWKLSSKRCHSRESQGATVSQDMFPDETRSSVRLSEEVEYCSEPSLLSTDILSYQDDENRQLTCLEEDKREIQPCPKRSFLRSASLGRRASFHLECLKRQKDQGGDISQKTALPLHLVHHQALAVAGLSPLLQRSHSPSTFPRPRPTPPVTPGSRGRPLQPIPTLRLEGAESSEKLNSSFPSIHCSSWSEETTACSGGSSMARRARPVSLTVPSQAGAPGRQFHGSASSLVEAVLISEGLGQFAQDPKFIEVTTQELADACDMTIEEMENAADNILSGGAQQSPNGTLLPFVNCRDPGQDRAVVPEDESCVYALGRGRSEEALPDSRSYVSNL

Compound | Bioactivity Observations: cell stress panel (HepG2 cells [8]) | pod_cell_stress PoD (HepG2 cells [8]) [µM] | pod_httr_bifrost PoD (HepG2 cells [9]) [µM] | podl_path_minbmd PoD (HepG2 cells [9]) [µM] | pod_httr_bifrost PoD (HepaRG cells) [µM] | podl_path_minbmd PoD (HepaRG cells) [µM] | pod_httr_bifrost PoD (MCF7 cells) [µM] | podl_path_minbmd PoD (MCF7 cells) [µM] | Intrinsic Liver Clearance [12] [L/h] | Specific binding ([1]; IPP screening at 10 uM) [%] | Specific binding ([2]; IPP screening at 10 uM) [%] | Specific binding ([3]; IPP screening at 10 uM) [%] | Specific binding ([4]; IPP screening at 10 uM) [%] | IPP screening %, Coactivator recruitment ([7]; 10 uM) [%] | IPP screening %, Specific binding (Tubulin (r); 10 uM) [%] | Specific binding ([10]; IPP screening at 10 uM) [%] | IPP screening %, Specific binding ([11]; 10 uM) [%] | IPP screening %, Coactivator recruitment ([13]; 10 uM) [%] | IPP screening %, Coactivator recruitment ([14]; 10 uM) [%] | other results
COC(=O)[C@H](Cc1ccccc1)NC(=O)[C@@H](N)CC(=O)O [Aspartame, Methyl L-alpha-aspartyl-L-phenylalaninate] (H-Asp-Phe-OMe) | the CSP shows some small effects on PGC1alpha/Nrf2 and the ECAR (seahorse) | 536.875 | 1509.3 | 2500 | 853.753 | 2500 | 423.587 | 2500 | 400.2 |  |  |  |  |  |  |  |  |  |  | Specific binding ([1]; IPP screening at 100 uM): 2.5%; Specific binding ([2]; IPP screening at 100 uM): 7.4%; Specific binding ([3]; IPP screening at 100 uM): 3.9%; Specific binding ([4]; IPP screening at 100 uM): 0.3%; IPP screening %, Coactivator recruitment [5, 21]: 0.0%; IPP screening %, Coactivator recruitment [6, 21]: -1.0%; IPP screening %, Coactivator recruitment [7, 21]: 2.0%; IPP screening %, Specific binding (Tubulin (r); 100 uM): -13.0%; Specific binding ([10]; IPP screening at 100 uM): 24.0%; IPP screening %, Specific binding ([11]; 100 uM): 1.5%; PoD (NOAEL) (rat; 38 days, developmental neurotoxicity study): 1614 mg/kg bw/day; IPP screening %, Coactivator recruitment ([13]; 100 uM): 15.7%; IPP screening %, Coactivator recruitment ([14]; 100 uM): -11.9%
CCCCOC(=O)c1ccc(O)cc1 [Butylparaben, Butyl 4-hydroxybenzoate] |  | 4.378 |  |  |  |  |  |  | 799.2 | 1.5 | 12.4 | 23.9 | 5.4 | 2.0 | 8.0 | -5.2 | -13.5 | 3.1 | 6.9 | BMDL5 ([15]; ref SCCS): 24 mg/kg/day; Real NOAEL ([15]; ref not given): 1000 mg/kg/day; alternative lowest PoD ([15]; studies stated to be flawed, ref Oishi): 14.4 mg/kg/day; PoD (LOAEL) (rat; subchronic - 8 weeks, ref Oishi): 10 mg/kg bw/day; Fup [16]: 5.64%; Risk Classification ([17]; Dermal […] in Body Lotion): Low risk; risk ([17]; Dermal, […] (regulation says limit is […] as acid), Body lotion, Exp1): 0
O=[N+]([O-])c1cc(C(F)(F)F)c(Cl)c([N+](=O)[O-])c1Nc1ncc(C(F)(F)F)cc1Cl [Fluazinam, 3-Chloro-N-[3-chloro-2,6-dinitro-4-(trifluoromethyl)phenyl]-5-(trifluoromethyl)pyridin-2-amine] | The seahorse assays within the cell stress panel do report activity and with a very large magnitude of change in the OCR biomarker | 0.6023 | 0.03634 | 0.699 | 0.0222 | 0.4338 | 0.1303 | 0.4999 |  | -3.7 | -31.4 | 19.6 | 14.9 | 2.0 | 9.0 | 1.2 | 16.2 | -8.8 | 111.2 | Specific binding [18]: 99.9%; IPP screening %, Coactivator recruitment ([5]; 10 uM): -4.0%; IPP screening %, Coactivator recruitment ([6]; 10 uM): 46.0%; AC50 [19]: 430 nM; PoD (NOAEL) (rat; 104 weeks): 0.38 mg/kg bw/day; Aqueous Solubility [20]: 950 ng/mL; Risk Classification ([17]; Oral 0.01 mg/kg bw/day): Low risk; Risk Classification ([17]; Oral 32% of 0.01 mg/kg bw/day): Low risk; risk ([17]; Oral, 32% ADI 0.01 mg/kg bw/day, Food residue, Exp1): 0; risk ([17]; Oral, ADI 0.01 mg/kg bw/day, Food residue, Exp2): 0
